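Grown in 96-well plates, cells were treated for 48 hours with each compound at five concentrations. Insufficient inhibition: endpoint recorded as highest concentration tested. Abbreviation: GI50, concentration required for 50% inhibition of growth. At the TGI there is no net growth.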
Key:
Assay in all cases: NCI-60 cell line screen, 48 h; in the data active means GI50 below about 0.43 µM; inactive means the rest
OVCAR-4 ovarian = system: OVCAR-4 ovarian
OVCAR-5 ovarian = system: OVCAR-5 ovarian
OVCAR-8 ovarian = system: OVCAR-8 ovarian
MDA-MB-435 = system: MDA-MB-435
A498 renal = system: A498 renal
HS 578T breast = system: HS 578T breast
LOX IMVI melanoma = system: LOX IMVI melanoma
COLO 205 colon = system: COLO 205 colon
ACHN renal = system: ACHN renal
CAKI-1 renal = system: CAKI-1 renal
SF-295 CNS = system: SF-295 CNS
TK-10 renal = system: TK-10 renal
SK-MEL-5 melanoma = system: SK-MEL-5 melanoma
K-562 leukemia = system: K-562 leukemia
OVCAR-3 ovarian = system: OVCAR-3 ovarian
M14 melanoma = system: M14 melanoma
SN12C renal = system: SN12C renal
UACC-62 melanoma = system: UACC-62 melanoma
DU-145 prostate = system: DU-145 prostate
SR leukemia = system: SR leukemia
SK-MEL-28 melanoma = system: SK-MEL-28 melanoma
SNB-19 CNS = system: SNB-19 CNS
SK-MEL-2 melanoma = system: SK-MEL-2 melanoma
KM12 colon = system: KM12 colon
MALME-3M melanoma = system: MALME-3M melanoma
RXF 393 renal = system: RXF 393 renal
NCI-H522 lung = system: NCI-H522 lung
RPMI-8226 leukemia = system: RPMI-8226 leukemia
T-47D breast = system: T-47D breast
HCC-2998 colon = system: HCC-2998 colon
UACC-257 melanoma = system: UACC-257 melanoma
BT-549 breast = system: BT-549 breast
SF-268 CNS = system: SF-268 CNS
A549 NSCLC = system: A549 NSCLC
SF-539 CNS = system: SF-539 CNS
MDA-MB-231 breast = system: MDA-MB-231 breast
HL-60(TB) leukemia = system: HL-60(TB) leukemia
UO-31 renal = system: UO-31 renal
SNB-75 CNS = system: SNB-75 CNS
786-0 renal = system: 786-0 renal
NCI-H226 lung = system: NCI-H226 lung
SK-OV-3 ovarian = system: SK-OV-3 ovarian
HOP-62 NSCLC = system: HOP-62 NSCLC
PC-3 prostate = system: PC-3 prostate
IGROV1 ovarian = system: IGROV1 ovarian
HCT-15 colon = system: HCT-15 colon
MCF7 breast = system: MCF7 breast
HOP-92 NSCLC = system: HOP-92 NSCLC
NCI-H460 lung = system: NCI-H460 lung
MOLT-4 leukemia = system: MOLT-4 leukemia
SW-620 colon = system: SW-620 colon
HT29 colon = system: HT29 colon
U251 CNS = system: U251 CNS
EKVX NSCLC = system: EKVX NSCLC
HCT-116 colon = system: HCT-116 colon
NCI/ADR-RES ovarian = system: NCI/ADR-RES ovarian

CC(=O)Oc1ccccc1C(=O)Nc1ccc(C(=O)/C=C/c2ccncc2)cc1
28.2 µM: TGI (HCT-116 colon)
49.2 µM: TGI (RPMI-8226 leukemia)
98.9 µM: TGI (RXF 393 renal)
> 100 µM: TGI (OVCAR-4 ovarian) | TGI (OVCAR-5 ovarian) | TGI (OVCAR-8 ovarian) | TGI (MDA-MB-435) | TGI (A498 renal) | TGI (HS 578T breast) | TGI (COLO 205 colon) | TGI (ACHN renal) | TGI (CAKI-1 renal) | TGI (SF-295 CNS) | TGI (TK-10 renal) | TGI (SK-MEL-5 melanoma) | TGI (K-562 leukemia) | TGI (OVCAR-3 ovarian) | TGI (M14 melanoma) | TGI (SN12C renal) | TGI (UACC-62 melanoma) | TGI (DU-145 prostate) | TGI (SK-MEL-28 melanoma) | TGI (SNB-19 CNS) | TGI (SK-MEL-2 melanoma) | TGI (KM12 colon) | TGI (MALME-3M melanoma) | TGI (NCI-H522 lung) | TGI (T-47D breast) | TGI (UACC-257 melanoma) | TGI (BT-549 breast) | TGI (SF-268 CNS) | TGI (A549 NSCLC) | TGI (SF-539 CNS) | TGI (MDA-MB-231 breast) | TGI (HL-60(TB) leukemia) | TGI (UO-31 renal) | TGI (SNB-75 CNS) | TGI (786-0 renal) | TGI (NCI-H226 lung) | TGI (SK-OV-3 ovarian) | TGI (HOP-62 NSCLC) | TGI (PC-3 prostate) | TGI (IGROV1 ovarian) | TGI (HCT-15 colon) | TGI (MCF7 breast) | TGI (HOP-92 NSCLC) | TGI (NCI-H460 lung) | TGI (MOLT-4 leukemia) | TGI (SW-620 colon) | TGI (HT29 colon) | TGI (U251 CNS) | TGI (EKVX NSCLC) | TGI (NCI/ADR-RES ovarian)
55.2 µM: TGI (HCC-2998 colon)
inactive: GI50 (OVCAR-4 ovarian) 85.8 µM | GI50 (OVCAR-5 ovarian) > 100 µM | GI50 (OVCAR-8 ovarian) > 100 µM | GI50 (MDA-MB-435) 27.8 µM | GI50 (A498 renal) > 100 µM | GI50 (HS 578T breast) 57.4 µM | GI50 (LOX IMVI melanoma) 12.8 µM | GI50 (COLO 205 colon) 38.1 µM | GI50 (ACHN renal) 59.7 µM | GI50 (CAKI-1 renal) 42.8 µM | GI50 (SF-295 CNS) > 100 µM | GI50 (TK-10 renal) > 100 µM | GI50 (SK-MEL-5 melanoma) > 100 µM | GI50 (K-562 leukemia) 22.7 µM | GI50 (OVCAR-3 ovarian) 36.1 µM | GI50 (M14 melanoma) 40.8 µM | GI50 (SN12C renal) 55.3 µM | GI50 (UACC-62 melanoma) > 100 µM | GI50 (DU-145 prostate) 58.2 µM | GI50 (SR leukemia) 22.4 µM | GI50 (SK-MEL-28 melanoma) > 100 µM | GI50 (SNB-19 CNS) > 100 µM | GI50 (SK-MEL-2 melanoma) > 100 µM | GI50 (KM12 colon) 25.9 µM | GI50 (MALME-3M melanoma) > 100 µM | GI50 (RXF 393 renal) 24.4 µM | GI50 (NCI-H522 lung) > 100 µM | GI50 (RPMI-8226 leukemia) 15 µM | GI50 (T-47D breast) 60 µM | GI50 (HCC-2998 colon) 22.2 µM | GI50 (UACC-257 melanoma) > 100 µM | GI50 (BT-549 breast) 25.1 µM | GI50 (SF-268 CNS) 61.8 µM | GI50 (A549 NSCLC) > 100 µM | GI50 (SF-539 CNS) 30.5 µM | GI50 (MDA-MB-231 breast) > 100 µM | GI50 (HL-60(TB) leukemia) 34.8 µM | GI50 (UO-31 renal) 63.2 µM | GI50 (SNB-75 CNS) > 100 µM | GI50 (786-0 renal) > 100 µM | GI50 (NCI-H226 lung) > 100 µM | GI50 (SK-OV-3 ovarian) > 100 µM | GI50 (HOP-62 NSCLC) > 100 µM | GI50 (PC-3 prostate) 49.8 µM | GI50 (IGROV1 ovarian) 51.7 µM | GI50 (HCT-15 colon) 25.7 µM | GI50 (MCF7 breast) 6.13 µM | GI50 (HOP-92 NSCLC) 4.6 µM | GI50 (NCI-H460 lung) 36.6 µM | GI50 (MOLT-4 leukemia) 40.2 µM | GI50 (SW-620 colon) 24.3 µM | GI50 (HT29 colon) 30.5 µM | GI50 (U251 CNS) 35.6 µM | GI50 (EKVX NSCLC) > 100 µM | GI50 (HCT-116 colon) 13.3 µM | GI50 (NCI/ADR-RES ovarian) > 100 µM
89.5 µM: TGI (SR leukemia)
34.8 µM: TGI (LOX IMVI melanoma)
